Experiments:
β‐glucuronidase [1] = target: T1, β‐glucuronidase (Escherichia coli, UniProt P05804); assay: in vitro β‐glucuronidase inhibition assay with PNPG as substrate; format: biochemical; settings: pH 7.4, 37 °C, 30 min, mean±SD; for IC50: PNPG substrate; for inhibition at 10 µM: inhibitor 10 μM, PNPG 250 μM, read-out: Inhibition rate 10 μM (%)
T1 construct: purchased Sigma (USA)
Description: The substrate p‐Nitrophenyl‐β‐D‐glucuronide (PNPG) and the employed reference drug (−)‐Epigallocatechin gallate (EGCG) were purchased from Sigma‐Aldrich. For this study, β‐glucuronidase, the enzyme of interest, was purchased from Sigma (USA). All other chemicals and solvents used were in the highest purity state or HPLC grade. Five isolated flavonoids from A. graecorum were assigned for their β‐glucuronidase inhibitory efficacy. We prepared the β‐glucuronidase enzyme according to the method reported by Weng et al..[27] A 100 mM stock solution of the substrate (PNPG) was prepared using […] and stored at −20 °C for subsequent utilization. Milli‐Q water was used exclusively for both the PNPG solution and the 0.1 M phosphate buffer solution (pH 7.4).
To estimate the activities of tested flavonoids as inhibitors against β‐glucuronidase, we employed PNPG as the substrate. The assessment procedure followed well‐documented previously reported protocols.[28] In brief, 96‐well plate assays were performed (100 μL/well) to assess β‐glucuronidase inhibition by flavonoids. Each well contained: β‐glucuronidase (2 μg/mL, 10 μL), flavonoid/EGCG inhibitor (10 μM, 10 μL), PNPG substrate (250 μM, 10 μL), and PBS buffer (pH 7.4, 70 μL). Reactions were done in triplicate. Enzyme activity was estimated by tracking PNP formation (OD₄₁₀ nm) after incubation (37 °C, 30 min). A standard curve (0–120 μM PNP) was used to quantify PNP. Relative activity (%) was calculated compared to the blank control. In addition, EGCG was employed as a reference drug. IC50 assays for flavonoid inhibition of β‐glucuronidase were conducted at temperature of 37 °C for 30 minutes. Each reaction contained: β‐glucuronidase (2.0 μg/mL, 10 μL), flavonoid/EGCG (varying concentrations, 0.001–1000 μM, 10 μL), and PBS buffer (pH 7.4, 70 μL). Relative activity (%) was measured as enzyme activity with an inhibitor compared to activity without an inhibitor. A concentration‐response curve was constructed using relative activity data to determine IC50 values.
(§1) To ensure reproducibility, all data are presented as the mean value±standard deviation (SD). This reflects the average value obtained from three independent trials. IC50 values, signifying the inhibitor concentration required for half‐maximal response, were determined from the concentration‐response curves. The IC50 and inhibition constant (Ki) values were estimated using nonlinear regression by the GraphPad Prism 9.0 software.

β‐glucuronidase [2] = target: T1, β‐glucuronidase; assay: inhibition kinetics (Michaelis‐Menten, Lineweaver‐Burk and slope plots) of PNPG hydrolysis; format: biochemical; settings: for mode of inhibition: Lineweaver‐Burk plots, PNPG hydrolysis; for Ki: PNPG 200-1000 μM, from slope plots of Lineweaver‐Burk plots
Description: To analyze the binding interactions between the tested inhibitors and the target enzyme, we constructed Michaelis‐Menten and Lineweaver‐Burk plots. These plots helped us understand how the inhibitors affect the enzyme′s kinetics. The Lineweaver‐Burk plot′s intersection point was used to identify the inhibition mode (noncompetitive, competitive, uncompetitive, or mixed). Established methods were employed to determine the specific inhibition mode and Ki values.[27, 28]
as §1

T1 sequence (P05804 whole entry): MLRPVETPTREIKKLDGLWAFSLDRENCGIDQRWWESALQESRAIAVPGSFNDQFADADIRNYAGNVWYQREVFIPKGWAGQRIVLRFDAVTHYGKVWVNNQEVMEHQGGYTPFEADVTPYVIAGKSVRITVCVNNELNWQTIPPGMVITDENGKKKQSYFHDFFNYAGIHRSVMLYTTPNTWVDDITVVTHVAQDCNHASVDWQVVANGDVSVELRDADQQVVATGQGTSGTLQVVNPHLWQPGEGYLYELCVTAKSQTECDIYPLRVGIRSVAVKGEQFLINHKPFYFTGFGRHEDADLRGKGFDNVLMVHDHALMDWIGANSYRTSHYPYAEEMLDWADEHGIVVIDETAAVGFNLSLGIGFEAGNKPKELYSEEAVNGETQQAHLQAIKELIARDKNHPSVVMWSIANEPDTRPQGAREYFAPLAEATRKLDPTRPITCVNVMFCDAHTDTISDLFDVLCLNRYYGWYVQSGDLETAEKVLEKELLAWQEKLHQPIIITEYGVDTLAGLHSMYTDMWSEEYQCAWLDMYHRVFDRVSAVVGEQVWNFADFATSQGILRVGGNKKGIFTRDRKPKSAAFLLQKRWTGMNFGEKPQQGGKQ

| Compound | IC50 (β‐glucuronidase [1]) [µM] | inhibition at 10 µM (β‐glucuronidase [1]) [%] | mode of inhibition (β‐glucuronidase [2]) | Ki (β‐glucuronidase [2]) [µM] |
| --- | --- | --- | --- | --- |
| O=C(O[C@@H]1Cc2c(O)cc(O)cc2O[C@@H]1c1cc(O)c(O)c(O)c1)c1cc(O)c(O)c(O)c1 [EGCG, (−)‐Epigallocatechin gallate, reference compound] | 3.26 ± 0.05 | 96.14 ± 0.54 | mixed | 1.42 |
| COc1cc(-c2cc(=O)c3c(O)cc(O)cc3o2)ccc1O [chrysoeriol] |  | 87.97 ± 0.65 | noncompetitive |  |
| COc1cc(-c2oc3cc(O)cc(O)c3c(=O)c2O)ccc1O [isorhamnetin] | 26.4 ± 0.72 | 73.9 ± 1.09 |  |  |
| O=c1c(O)c(-c2cc(O)c(O)c(O)c2)oc2cc(O)cc(O)c12 [myricetin] | 3.95 ± 0.04 | 92.59 ± 0.56 | noncompetitive | 3.07 |
| O=C1C[C@@H](c2ccc(O)cc2)Oc2cc(O)cc(O)c21 [naringenin] | 52.3 ± 2.44 | 56 ± 2.5 |  |  |
| COc1ccc(-c2oc3cc(O)cc(O)c3c(=O)c2O)cc1O [tamarixetin] | 19.9 ± 1.23 | 80 ± 1.71 |  |  |

— article PMC11891452, “Molecular Insights Into β‐Glucuronidase Inhibition by Alhagi Graecorum Flavonoids: A Computational and Experimental Approach” (ChemistryOpen, 2024)
